Where “and” joins values, the source holds several entries; their conditions need not be identical. Equal entries are not always repeated. Entries after “also recorded” stand apart in the source; their conditions may differ. Where two headings read alike, the source gives them in different places.
Tests used:
anaerobic bacteria = assay: Culture on Columbia medium with 5% sheep blood in ambient air; format: cell-based; settings: 1 mg/ml; ambient air or ambient air enriched with 5% of CO2
Description: These geloses inoculated with anaerobic bacteria were incubated either in ambient air or in ambient air enriched with 5% of CO2. […] These tests were conducted with a Columbia medium with 5% sheep blood having the following composition for 1 liter: […]

Clostridium tertium = assay: Liquid hemoculture BD BACTEC Plus Aerobic/F, growth detection by CO2; format: cell-based; settings: Aerobic with UA 400 mg/L
Clostridium perfringens = format: cell-based; settings: Aerobic with UA 400 mg/L
[1] = tested on: Helicobacter cinaedi strain DSMZ 5359; assay: Aerobic culture in Schaedler medium with uric acid; settings: without starch and glucose
Clostridium butirycum = assay: Liquid hemoculture BD BACTEC Plus Aerobic/F, growth detection by CO2; format: cell-based; settings: Aerobic with UA 400 mg/L
Description: Hemocultures of strict anaerobic bacteria were made, inoculated to 10^5 cfu/mL on a culture medium: BD BACTEC™ Plus Aerobic/F. comprising 25 ml of enriched Trypticase soya broth, with resines (Reference: 442192) at 37° C. in an aerobic atmosphere with uric acid a 400 mg/L and without uric acid and in an anaerobic atmosphere without uric acid. The detection of the growth was ensured by detection of the production of CO2 with the BD BACTEC™ 9000 Series Instrumented Blood Culture Systems device.

[2] = tested on: Bacteroides thetaiotaomicron; assay: Culture in Schaedler 0.2% agar tubes, height of growth; format: cell-based
[3] = tested on: Bacteroides thetaiotaomicron; format: cell-based
[4] = single replicates, listed as UA

Row | Structure (SMILES) | growth on Columbia medium with 5% sheep blood (anaerobic bacteria) | Averages (growth time) (Clostridium tertium) | Growth time (Clostridium tertium; [4]) | Averages (growth time) (Clostridium perfringens) | Growth time (Clostridium perfringens; [4]) | time until bacterium established in culture [1] | Averages (growth time) (Clostridium butirycum) | Growth time (Clostridium butirycum; [4]) | extent of culture in deoxygenated tube ([2]; 200 μg/ml) | extent of culture in deoxygenated tube ([2]; 500 μg/ml) | growth compared with ascorbic acid ([2]; 500 μg/ml, Schaedler 0.2% agar tubes) | growth with uric acid alone compared with mixture of uric acid, ascorbic acid and glutathion ([3]; 0.3 g/L of uric acid alone) | culture result with production of hydrogen ([3]; aerobic conditions, 24 hour incubation, 37° C., uric acid alone 0.1, 0.2 or 0.3 g/L, or 0.1 g/L each of ascorbic acid, uric acid, glutathion) | growth with uric acid alone compared with mixture of uric acid, ascorbic acid and glutathion ([3]; uric acid alone at least 0.2 g/L)
1 | O=C1O[C@H]([C@@H](O)CO)C(O)=C1O [ascorbic acid, reference compound] | Best growth |  |  |  |  |  |  |  |  |  |  |  |  | 
2 | O=c1[nH]c(=O)c2[nH]c(=O)[nH]c2[nH]1 [uric acid, 7,9-dihydro-1H-purine-2,6,8(3H)-trione] | Best growth | 4.333 | 4 h (2×) and 5 h | 6 | 7 h and 5 h and 6 h | ≤ 24 h | 6.667 | 8 h and 6 h (2×) | practically occurs up to the surface | completely up to the surface; also recorded: growth up to the surface | identical | greater | positive culture | equivalent

Reference: patent publication US10626421B2, “Use of uric acid for culturing bacteria sensitive to oxygen tension” (FONDATION MEDITERRANEE INFECTION, priority 2014, dated 2020)
